According to patent US20060069132A1, “Azolecarboxamide herbicides” (priority 2004, published 2006):

Columns and labels:
Assay in all cases: Test E pre-/postemergence herbicide test
large crabgrass = format: in vivo, Digitaria sanguinalis
In short: (§1)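 Greenhouse response scored visually 12 to 14 days after treatment versus controls, 0 meaning no effect and 100 complete control. Compounds, formulated with surfactant in a non-phytotoxic solvent blend, were sprayed either preemergence after sowing or postemergence at the 1- to 4-leaf stage (2 to 18 cm).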

goosegrass = format: in vivo, Eleusine indica
In short: as §1

pitted morningglory = format: in vivo, Ipomoea lacunosa
In short: as §1

dallisgrass = format: in vivo, Paspalum dilatatum
In short: as §1

prickly sida = format: in vivo, Sida spinosa
In short: as §1

annual bluegrass = format: in vivo, Poa annua
In short: as §1

downy bromegrass = format: in vivo, Bromus tectorum
In short: as §1

itchgrass = format: in vivo, Rottboellia cochinchinensis
In short: as §1

common mallow = format: in vivo, Malva sylvestris
In short: as §1

[1] = Postemergence, 500 g ai/ha, scale 0 to 100
[2] = Postemergence, 250 g ai/ha, scale 0 to 100
[3] = Preemergence, 125 g ai/ha, scale 0 to 100
[4] = Preemergence, 250 g ai/ha, scale 0 (no effect) to 100 (complete control)
[5] = Preemergence, 375 g ai/ha, scale 0 (no effect) to 100 (complete control)
[6] = Preemergence, 500 g ai/ha, scale 0 (no effect) to 100 (complete control)
[7] = postemergence, 125 g ai/ha, scale 0 to 100
[8] = postemergence, 62 g ai/ha, scale 0 to 100
[9] = Preemergence, 62 g ai/ha, scale 0 to 100

In the case of CCn1nc(C(C)(C)C)cc1C(=O)Nc1cc(C(=S)N(C)C)ccc1F [Compound 294], the “Plant response rating, Crabgrass, Large” value (large crabgrass; [1]) was 80, the “Plant response rating, Crabgrass, Large” value (large crabgrass; [2]) was 75 and the “Plant response rating, Crabgrass, Large” value (large crabgrass; [3]) was 75. The “Plant response rating, Crabgrass, Large” value (large crabgrass; [4]) was 95, the “Plant response rating, Crabgrass, Large” value (large crabgrass; [5]) was 100 and the “Plant response rating, Crabgrass, Large” value (large crabgrass; [6]) was 100. The “Plant response rating, Crabgrass, Large” value (large crabgrass; [7]) was 70, the “Plant response rating, Crabgrass, Large” value (large crabgrass; [8]) was 40 and the “Plant response rating, Goosegrass” value (goosegrass; [1]) was 85. The “Plant response rating, Goosegrass” value (goosegrass; [2]) was 80, the “Plant response rating, Goosegrass” value (goosegrass; [3]) was 95 and the “Plant response rating, Goosegrass” value (goosegrass; [4]) was 95. The “Plant response rating, Goosegrass” value (goosegrass; [5]) was 100, the “Plant response rating, Goosegrass” value (goosegrass; [6]) was 100 and the “Plant response rating, Goosegrass” value (goosegrass; [7]) was 60. For the same molecule, the “Plant response rating, Goosegrass” value (goosegrass; [8]) was 50, the “Plant response rating, Morningglory” value (pitted morningglory; [1]) was 20 and the “Plant response rating, Morningglory” value (pitted morningglory; [2]) was 20. For the same molecule, the “Plant response rating, Morningglory” value (pitted morningglory; [3]) was 10, the “Plant response rating, Morningglory” value (pitted morningglory; [4]) was 10 and the “Plant response rating, Morningglory” value (pitted morningglory; [5]) was 40. The “Plant response rating, Morningglory” value (pitted morningglory; [6]) was 70, the “Plant response rating, Morningglory” value (pitted morningglory; [7]) was 10 and the “Plant response rating, Morningglory” value (pitted morningglory; [8]) was 0. For the same molecule, the “Plant response rating, Dallisgrass” value (dallisgrass; [1]) was 70, the “Plant response rating, Dallisgrass” value (dallisgrass; [2]) was 60 and the “Plant response rating, Dallisgrass” value (dallisgrass; [3]) was 75. For the same molecule, the “Plant response rating, Dallisgrass” value (dallisgrass; [4]) was 80, the “Plant response rating, Dallisgrass” value (dallisgrass; [5]) was 95 and the “Plant response rating, Dallisgrass” value (dallisgrass; [6]) was 95. For the same molecule, the “Plant response rating, Dallisgrass” value (dallisgrass; [7]) was 40, the “Plant response rating, Dallisgrass” value (dallisgrass; [8]) was 10 and the “Plant response rating, Prickly Sida” value (prickly sida; [1]) was 100. The “Plant response rating, Prickly Sida” value (prickly sida; [2]) was 80, the “Plant response rating, Prickly Sida” value (prickly sida; [3]) was 100 and the “Plant response rating, Prickly Sida” value (prickly sida; [4]) was 100. For the same molecule, the “Plant response rating, Prickly Sida” value (prickly sida; [5]) was 100, the “Plant response rating, Prickly Sida” value (prickly sida; [6]) was 100 and the “Plant response rating, Prickly Sida” value (prickly sida; [7]) was 70. The “Plant response rating, Prickly Sida” value (prickly sida; [8]) was 50, the “Plant response rating, Bluegrass” value (annual bluegrass; [1]) was 95 and the “Plant response rating, Bluegrass” value (annual bluegrass; [2]) was 95. For the same molecule, the “Plant response rating, Bluegrass” value (annual bluegrass; [3]) was 95, the “Plant response rating, Bluegrass” value (annual bluegrass; [4]) was 95 and the “Plant response rating, Bluegrass” value (annual bluegrass; [5]) was 95. For the same molecule, the “Plant response rating, Bluegrass” value (annual bluegrass; [6]) was 100, the “Plant response rating, Bluegrass” value (annual bluegrass; [7]) was 95 and the “Plant response rating, Bluegrass” value (annual bluegrass; [8]) was 95. The “Plant response rating, Bromegrass, Downy” value (downy bromegrass; [1]) was 95, the “Plant response rating, Bromegrass, Downy” value (downy bromegrass; [2]) was 85 and the “Plant response rating, Bromegrass, Downy” value (downy bromegrass; [3]) was 80. For the same molecule, the “Plant response rating, Bromegrass, Downy” value (downy bromegrass; [4]) was 100, the “Plant response rating, Bromegrass, Downy” value (downy bromegrass; [5]) was 100 and the “Plant response rating, Bromegrass, Downy” value (downy bromegrass; [6]) was 100. For the same molecule, the “Plant response rating, Bromegrass, Downy” value (downy bromegrass; [7]) was 75, the “Plant response rating, Bromegrass, Downy” value (downy bromegrass; [8]) was 60 and the “Plant response rating, Itchgrass” value (itchgrass; [1]) was 80. The “Plant response rating, Itchgrass” value (itchgrass; [2]) was 75, the “Plant response rating, Itchgrass” value (itchgrass; [4]) was 75 and the “Plant response rating, Itchgrass” value (itchgrass; [5]) was 95. For the same molecule, the “Plant response rating, Itchgrass” value (itchgrass; [6]) was 100, the “Plant response rating, Itchgrass” value (itchgrass; [7]) was 70 and the “Plant response rating, Itchgrass” value (itchgrass; [8]) was 50. For the same molecule, the “Plant response rating, Mallow” value (common mallow; [1]) was 100, the “Plant response rating, Mallow” value (common mallow; [2]) was 50 and the “Plant response rating, Mallow” value (common mallow; [3]) was 40. For the same molecule, the “Plant response rating, Mallow” value (common mallow; [4]) was 40, the “Plant response rating, Mallow” value (common mallow; [6]) was 80 and the “Plant response rating, Mallow” value (common mallow; [7]) was 40. For the same molecule, the “Plant response rating, Mallow” value (common mallow; [8]) was 20.

In the case of CCn1nc(C2(C)CC2)cc1C(=O)Nc1cc(C(=O)N(C)C)ccc1F [Compound 299], the “Plant response rating, Crabgrass, Large” value (large crabgrass; [1]) was 95, the “Plant response rating, Crabgrass, Large” value (large crabgrass; [2]) was 95 and the “Plant response rating, Crabgrass, Large” value (large crabgrass; [9]) was 90. For the same molecule, the “Plant response rating, Crabgrass, Large” value (large crabgrass; [3]) was 100, the “Plant response rating, Crabgrass, Large” value (large crabgrass; [4]) was 100 and the “Plant response rating, Crabgrass, Large” value (large crabgrass; [6]) was 100. For the same molecule, the “Plant response rating, Crabgrass, Large” value (large crabgrass; [7]) was 85, the “Plant response rating, Crabgrass, Large” value (large crabgrass; [8]) was 75 and the “Plant response rating, Goosegrass” value (goosegrass; [1]) was 85. For the same molecule, the “Plant response rating, Goosegrass” value (goosegrass; [2]) was 80, the “Plant response rating, Goosegrass” value (goosegrass; [9]) was 100 and the “Plant response rating, Goosegrass” value (goosegrass; [3]) was 100. For the same molecule, the “Plant response rating, Goosegrass” value (goosegrass; [4]) was 100, the “Plant response rating, Goosegrass” value (goosegrass; [6]) was 100 and the “Plant response rating, Goosegrass” value (goosegrass; [7]) was 80. For the same molecule, the “Plant response rating, Goosegrass” value (goosegrass; [8]) was 60, the “Plant response rating, Morningglory” value (pitted morningglory; [1]) was 60 and the “Plant response rating, Morningglory” value (pitted morningglory; [2]) was 40. The “Plant response rating, Morningglory” value (pitted morningglory; [9]) was 10, the “Plant response rating, Morningglory” value (pitted morningglory; [3]) was 75 and the “Plant response rating, Morningglory” value (pitted morningglory; [4]) was 90. The “Plant response rating, Morningglory” value (pitted morningglory; [7]) was 20, the “Plant response rating, Morningglory” value (pitted morningglory; [8]) was 10 and the “Plant response rating, Dallisgrass” value (dallisgrass; [1]) was 85. For the same molecule, the “Plant response rating, Dallisgrass” value (dallisgrass; [2]) was 75, the “Plant response rating, Dallisgrass” value (dallisgrass; [9]) was 75 and the “Plant response rating, Dallisgrass” value (dallisgrass; [3]) was 85. The “Plant response rating, Dallisgrass” value (dallisgrass; [4]) was 100, the “Plant response rating, Dallisgrass” value (dallisgrass; [6]) was 100 and the “Plant response rating, Dallisgrass” value (dallisgrass; [7]) was 70. The “Plant response rating, Dallisgrass” value (dallisgrass; [8]) was 50, the “Plant response rating, Prickly Sida” value (prickly sida; [1]) was 95 and the “Plant response rating, Prickly Sida” value (prickly sida; [2]) was 95. The “Plant response rating, Prickly Sida” value (prickly sida; [9]) was 85, the “Plant response rating, Prickly Sida” value (prickly sida; [3]) was 85 and the “Plant response rating, Prickly Sida” value (prickly sida; [4]) was 100. For the same molecule, the “Plant response rating, Prickly Sida” value (prickly sida; [6]) was 100, the “Plant response rating, Prickly Sida” value (prickly sida; [7]) was 95 and the “Plant response rating, Prickly Sida” value (prickly sida; [8]) was 60. The “Plant response rating, Bluegrass” value (annual bluegrass; [1]) was 100, the “Plant response rating, Bluegrass” value (annual bluegrass; [2]) was 80 and the “Plant response rating, Bluegrass” value (annual bluegrass; [9]) was 85. The “Plant response rating, Bluegrass” value (annual bluegrass; [3]) was 95, the “Plant response rating, Bluegrass” value (annual bluegrass; [4]) was 95 and the “Plant response rating, Bluegrass” value (annual bluegrass; [6]) was 100. The “Plant response rating, Bluegrass” value (annual bluegrass; [7]) was 70, the “Plant response rating, Bluegrass” value (annual bluegrass; [8]) was 60 and the “Plant response rating, Bromegrass, Downy” value (downy bromegrass; [1]) was 95. The “Plant response rating, Bromegrass, Downy” value (downy bromegrass; [2]) was 80, the “Plant response rating, Bromegrass, Downy” value (downy bromegrass; [4]) was 100 and the “Plant response rating, Bromegrass, Downy” value (downy bromegrass; [6]) was 100. For the same molecule, the “Plant response rating, Bromegrass, Downy” value (downy bromegrass; [7]) was 70, the “Plant response rating, Bromegrass, Downy” value (downy bromegrass; [8]) was 50 and the “Plant response rating, Itchgrass” value (itchgrass; [1]) was 80. The “Plant response rating, Itchgrass” value (itchgrass; [2]) was 75, the “Plant response rating, Itchgrass” value (itchgrass; [9]) was 60 and the “Plant response rating, Itchgrass” value (itchgrass; [3]) was 75. The “Plant response rating, Itchgrass” value (itchgrass; [4]) was 90, the “Plant response rating, Itchgrass” value (itchgrass; [6]) was 100 and the “Plant response rating, Itchgrass” value (itchgrass; [7]) was 70. For the same molecule, the “Plant response rating, Itchgrass” value (itchgrass; [8]) was 30, the “Plant response rating, Mallow” value (common mallow; [1]) was 100 and the “Plant response rating, Mallow” value (common mallow; [2]) was 50. The “Plant response rating, Mallow” value (common mallow; [9]) was 50, the “Plant response rating, Mallow” value (common mallow; [3]) was 75 and the “Plant response rating, Mallow” value (common mallow; [4]) was 95. For the same molecule, the “Plant response rating, Mallow” value (common mallow; [6]) was 100, the “Plant response rating, Mallow” value (common mallow; [7]) was 30 and the “Plant response rating, Mallow” value (common mallow; [8]) was 10.

In the case of CCc1nn(C(C)(C)C)nc1C(=O)Nc1cccc(C(=S)N(C)C)c1 [Compound 395], the “Plant response rating, Crabgrass, Large” value (large crabgrass; [9]) was 80, the “Plant response rating, Crabgrass, Large” value (large crabgrass; [3]) was 100 and the “Plant response rating, Crabgrass, Large” value (large crabgrass; [4]) was 100. The “Plant response rating, Crabgrass, Large” value (large crabgrass; [6]) was 100, the “Plant response rating, Goosegrass” value (goosegrass; [9]) was 80 and the “Plant response rating, Goosegrass” value (goosegrass; [3]) was 80. The “Plant response rating, Goosegrass” value (goosegrass; [4]) was 90, the “Plant response rating, Goosegrass” value (goosegrass; [6]) was 95 and the “Plant response rating, Morningglory” value (pitted morningglory; [9]) was 20. For the same molecule, the “Plant response rating, Morningglory” value (pitted morningglory; [3]) was 40, the “Plant response rating, Morningglory” value (pitted morningglory; [4]) was 75 and the “Plant response rating, Morningglory” value (pitted morningglory; [6]) was 75. The “Plant response rating, Dallisgrass” value (dallisgrass; [9]) was 50, the “Plant response rating, Dallisgrass” value (dallisgrass; [3]) was 70 and the “Plant response rating, Dallisgrass” value (dallisgrass; [4]) was 90. The “Plant response rating, Dallisgrass” value (dallisgrass; [6]) was 90, the “Plant response rating, Prickly Sida” value (prickly sida; [9]) was 60 and the “Plant response rating, Prickly Sida” value (prickly sida; [3]) was 95. For the same molecule, the “Plant response rating, Prickly Sida” value (prickly sida; [4]) was 95, the “Plant response rating, Prickly Sida” value (prickly sida; [6]) was 95 and the “Plant response rating, Bluegrass” value (annual bluegrass; [9]) was 30. For the same molecule, the “Plant response rating, Bluegrass” value (annual bluegrass; [3]) was 80, the “Plant response rating, Bluegrass” value (annual bluegrass; [4]) was 95 and the “Plant response rating, Bluegrass” value (annual bluegrass; [6]) was 95. For the same molecule, the “Plant response rating, Bromegrass, Downy” value (downy bromegrass; [9]) was 40, the “Plant response rating, Bromegrass, Downy” value (downy bromegrass; [3]) was 40 and the “Plant response rating, Bromegrass, Downy” value (downy bromegrass; [4]) was 95. The “Plant response rating, Bromegrass, Downy” value (downy bromegrass; [6]) was 95, the “Plant response rating, Itchgrass” value (itchgrass; [9]) was 20 and the “Plant response rating, Itchgrass” value (itchgrass; [3]) was 60. The “Plant response rating, Itchgrass” value (itchgrass; [4]) was 60, the “Plant response rating, Itchgrass” value (itchgrass; [6]) was 80 and the “Plant response rating, Mallow” value (common mallow; [9]) was 20. The “Plant response rating, Mallow” value (common mallow; [3]) was 50 and the “Plant response rating, Mallow” value (common mallow; [6]) was 60.
